Several values for one entry are separate records, joined by “and”; a condition that tells them apart may be missing. Identical values can stand only once.
Experiments:
Acanthocheilonema viteae = test: Antifilarial dual infection screen in jirds: adult A. viteae burden and microfilaremia; assay type: in vivo, in Mongolian jirds
Description: Dual infections of the filarial worms Brugia pahangi and Acanthocheilonema viteae in jirds are used routinely for antifilarial screening [McCall, J. W., McTier, T. L., and Rowan, S. J., "In vivo models for evaluating potential antifilarial agents", Onchocerciasis/Filariasis (Proceedings of a Symposium sponsored by the World Health Organization), Kalamazoo, Mich., Apr. 8-10, 23-24 (1986)].
For this dual infection screen, male Mongolian jirds weighing 50-60 g are infected SC with 10 (5 male and 5 female) adult A. viteae, transplanted under sodium pentobarbital anesthesia (48 mg/kg) from donor hamsters infected SC 8 weeks earlier. Two weeks later, 20 (10 male and 10 female) adult B. pahangi, taken from donor jirds infected IP 8 weeks earlier, are transplanted into the peritoneal cavity of each jird under sodium pentobarbital anesthesia. After an additional week, when the jirds have acceptable levels of microfilaremia, they are randomly allocated to treatment groups of 3 animals each and a nontreated group of 4-6 animals. Microfilaremia is determined on days 0 (just prior to the first dose), 4 and 56 post-treatment. Unless indicated otherwise, compounds are suspended in hydroxyethylcellulose (0.5%) - Tween 80 (0.1%) and administered SC at 100 mg/kg/day for 5 consecutive days. All jirds are killed on day 56 post-treatment to determine the effects of drugs on adults of A. viteae and B. pahangi. Live worms are identified as to species, noted as to sex, and counted. The number of dead and/or encapsulated worms is also recorded. A reduction of ≥80% in microfilaremia or ≥50% in adult worm burden (either species) compared with pre-treatment microfilaremia or non-treated control worm burden, respectively, is considered to be significant. For secondary testing with this dual infection screen, groups of 7 animals each are used. For oral dosing, drugs are dissolved or suspended in hydroxyethylcellulose - Tween 80 and administered by gavage.

physchem = settings: water

Compound: COC(=O)Nc1nc2cc(C(N)c3ccc(F)cc3)ccc2[nH]1.Cl.Cl (racemic) [Example 2, Methyl (±)-[5-[Amino(4Fluorophenyl)Methyl]-1H-Benzimidazol-2-yl]Carbamate Dihy drochloride Salt]
- % Macrofilarial reduction, A. viteae (Acanthocheilonema viteae; 1.56 mg/kg/day × 5 days, SC, day 56): 48%
- % Microfilarial reduction, A. viteae, Day 4 (Acanthocheilonema viteae; 3.13 mg/kg/day × 5 days, SC): 88%
- % Microfilarial reduction, A. viteae, Day 56 (Acanthocheilonema viteae; 3.13 mg/kg/day × 5 days, SC): 100%
- % Macrofilarial reduction, A. viteae (Acanthocheilonema viteae; 3.13 mg/kg/day × 5 days, SC, day 56, 3.13 mg/kg/day): 74% and 69%
- % Microfilarial reduction, A. viteae, Day 4 (Acanthocheilonema viteae; 6.25 mg/kg/day × 5 days, SC): 83%
- % Microfilarial reduction, A. viteae, Day 56 (Acanthocheilonema viteae; 6.25 mg/kg/day × 5 days, SC): 100%
- % Macrofilarial reduction, A. viteae (Acanthocheilonema viteae; 6.25 mg/kg/day × 5 days, SC, day 56): 100%
- % Macrofilarial reduction, A. viteae (Acanthocheilonema viteae; 12.5 mg/kg/day × 1 day, SC, day 56): 83%
- % Microfilarial reduction, A. viteae, Day 4 (Acanthocheilonema viteae; 12.5 mg/kg/day × 5 days, SC): 80%
- % Microfilarial reduction, A. viteae, Day 56 (Acanthocheilonema viteae; 12.5 mg/kg/day × 5 days, SC): 100%
- % Macrofilarial reduction, A. viteae (Acanthocheilonema viteae; 12.5 mg/kg/day × 5 days, SC, day 56): 100%
- % Macrofilarial reduction, A. viteae (Acanthocheilonema viteae; 25 mg/kg/day × 1 day, SC, day 56): 96%
- % Macrofilarial reduction, A. viteae (Acanthocheilonema viteae; 25 mg/kg/day × 5 days, SC, day 56): 100%
- % Macrofilarial reduction, A. viteae (Acanthocheilonema viteae; 75 mg/kg/day × 5 days, oral, day 56): 83%
- % Microfilarial reduction, A. viteae, Day 4 (Acanthocheilonema viteae; 100 mg/kg/day × 5 days, oral): 50%
- % Microfilarial reduction, A. viteae, Day 56 (Acanthocheilonema viteae; 100 mg/kg/day × 5 days, oral): 75%
- % Macrofilarial reduction, A. viteae (Acanthocheilonema viteae; 100 mg/kg/day × 5 days, oral, day 56): 80%
- solubility (physchem): > 50 mg/mL

— patent US5278181A, “Soluble alkyl[5-[amino (phenyl)methyl]-1H-benzimidazol-2-yl] carbamate anthelmintics” (priority 1992, dated 1994)
